Measured values: the NIST ThermoML archive (doi:10.1021/acs.jced.8b00614)

Columns and labels:
[1] = refractive index (Na D-line) (dimensionless); details: 298.2 K; 101.33 kPa; Liquid; Standard Abbe refractometry
[2] = Liquid; for mass density: 298.2 K, 101.33 kPa, Vibrating tube method; for vapor or sublimation pressure: Chromatography
[3] = Boiling temperature at pressure P; details: Liquid, Ebulliometric method (Recirculating still)

COC(C)(C)C [2-methoxy-2-methylpropane]
Details | mass density [kg/m3] | refractive index
[1] | – | 1.36632
[2] | 735.38 | –

Details | Boiling temperature at pressure P [°C] | vapor or sublimation pressure [kPa]
[2], 307.2 K | – | 47.7
[2], 317.2 K | – | 68.9
[2], 327.2 K | – | 97.1
[3], 20 kPa | 13.0 | –
[3], 30 kPa | 22.2 | –
[3], 40 kPa | 29.5 | –
[3], 50 kPa | 35.2 | –
[3], 60 kPa | 40.2 | –
[3], 70 kPa | 44.5 | –
[3], 79.9 kPa | 48.4 | –
[3], 90 kPa | 51.8 | –
[3], 99.7 kPa | 55.0 | –

CCCCCO [pentan-1-ol]
Details | mass density [kg/m3] | refractive index
[1] | – | 1.40764
[2] | 810.9 | –

Details | Boiling temperature at pressure P [°C] | vapor or sublimation pressure [kPa]
[2], 317.2 K | – | 1.1
[2], 327.2 K | – | 2.1
[2], 350.2 K | – | 8
[2], 360.2 K | – | 13.3
[2], 370.2 K | – | 21
[3], 1.1 kPa | 44.2 | –
[3], 5 kPa | 68.2 | –
[3], 10 kPa | 81.4 | –
[3], 20 kPa | 96 | –
[3], 30 kPa | 105.2 | –
[3], 40 kPa | 112.4 | –
[3], 50 kPa | 118.2 | –
[3], 60 kPa | 123.1 | –
[3], 70 kPa | 127.2 | –
[3], 79.9 kPa | 131.1 | –
[3], 90 kPa | 134.6 | –
[3], 99.7 kPa | 137.7 | –

CC(C)CC(C)(C)C [2,2,4-trimethylpentane]
Details | mass density [kg/m3] | refractive index
[1] | – | 1.3891
[2] | 687.73 | –

Details | Boiling temperature at pressure P [°C] | vapor or sublimation pressure [kPa]
[2], 307.2 K | – | 10
[2], 317.2 K | – | 15.3
[2], 327.2 K | – | 22.8
[2], 350.2 K | – | 51.6
[2], 360.2 K | – | 70.7
[2], 370.2 K | – | 95
[3], 5 kPa | 19.4 | –
[3], 10 kPa | 34.0 | –
[3], 20 kPa | 50.7 | –
[3], 30 kPa | 61.4 | –
[3], 40 kPa | 69.5 | –
[3], 50 kPa | 76.1 | –
[3], 60 kPa | 81.8 | –
[3], 70 kPa | 86.7 | –
[3], 80 kPa | 91.1 | –
[3], 90 kPa | 95.2 | –
[3], 99.7 kPa | 98.8 | –
